Reference: US20120021973A1, “Peptides for Treatment of Obesity” (priority 2008, published 2012)
*1 amine or outer side, *2 acyl side, *3 side chain or, on linkers, in order; H or OH if unused. Where a SMILES comes first, the peptide text is derived from it. Bridges are numbered along the chain shown (N, C = ends). [ ]: non-standard residue; d: D form. The star is where a group is joined. Palmitoyl(16-(5-tetrazolyl)) = O=C(CCCCCCCCCCCCCCCc1nnn[nH]1)*; Lys(CH2CO2H)2 = N[C@@H](CCCCN(CC(=O)O)CC(=O)O)C(=O)O; X1 = O=C(O)CN(CC(=O)O)C[C@H](N[*:1])C(=O)[*:2]; C20 diacid = O=C(O)CCCCCCCCCCCCCCCCCCC(=O)*; Hyp = O=C(O)[C@@H]1C[C@@H](O)CN1; NTA = O=C(O)CN(CC(=O)O)CC(=O)*; Nle = CCCC[C@H](N)C(=O)O; Dap = NC[C@H](N)C(=O)O; AEEA = NCCOCCOCC(=O)O; βAla = NCCC(=O)O

System: ad libitum fed rat
Test: Assay (I) efficacy testing on appetite, ad libitum fed rat model
Assay type: in vivo
Experimental: Assay (I)— Experimental Protocol for Efficacy Testing on Appetite with MC4 Analogues, Using an Ad Libitum Fed Rat Model.
TAC:SPRD @mol rats or Wistar rats from M&B Breeding and Research Centre A/S, Denmark are used for the experiments. The rats have a body weight 200-250 g at the start of experiment. The rats arrive at least 10-14 days before start of experiment with a body weight of 180-200 g. Each dose of compound is tested in a group of 8 rats. A vehicle group of 8 rats is included in each set of testing.
When the animals arrive they are housed individually in a reversed light/dark phase (lights off 7:30 am, lights on 7:30 pm), meaning that lights are off during daytime and on during nighttime. Since rats normally initiate food intake when light is removed, and eat the major part of their daily food intake during the night, this set up results in an alteration of the initiation time for food intake to 7:30 am, when lights are switched off. During the acclimatization period of 10-14 days, the rats have free access to food and water. During this period the animals are handled at least 3 times. The experiment is conducted in the rats' home cages. Immediately before dosing the rats are randomised to the various treatment groups (n 8) by body weight. They are dosed according to body weight at between 7:00 am and 7:45 am, with a 1-3 mg/kg solution administered intraperitoneally (ip), orally (po) or subcutaneously (sc). The time of dosing is recorded for each group. After dosing, the rats are returned to their home cages, where they then have access to food and water. The food consumption is recorded individually every hour for 7 hours, and then after 24 h and sometimes 48 h. At the end of the experimental session, the animals are euthanised.
The individual data are recorded in Microsoft excel sheets. Outliers are excluded after applying the Grubbs statistical evaluation test for outliers, and the result is presented graphically using the GraphPad Prism program.

CCCC[C@H](NC(=O)[C@H](CNC(=O)CN(CC(=O)O)CC(=O)O)NC(=O)[C@H](CO)NC(=O)[C@H](CCC(N)=O)NC(=O)[C@H](CO)NC(=O)CNC(=O)COCCOCCNC(=O)CCCCCCCCCCCCCCCc1nnn[nH]1)C(=O)N[C@H]1CCC(=O)NCCCC[C@@H](C(N)=O)NC(=O)[C@H](Cc2c[nH]c3ccccc23)NC(=O)[C@H](CCCNC(=N)N)NC(=O)[C@@H](Cc2ccccc2)NC(=O)[C@@H]2C[C@@H](O)CN2C1=O [Example 4, (2-{2-[16-(Tetrazol-5-yl)hexadecanoylamino]ethoxy}ethoxy)acetyl-Gly-Ser-Gln-Ser-Dap(BCMA)-Nle-c[Glu-Hyp-D-Phe-Arg-Trp-Lys]-NH2] ({Palmitoyl(16-(5-tetrazolyl))-AEEA}-GSQS[Dap](NTA)[Nle]E[Hyp][dF]RWK-NH2; lactam 7-12)
Food consumption (% of vehicle) 24 h (3 mg/kg): 52 % of vehicle
Food consumption (% of vehicle) 48 h (3 mg/kg): 69 % of vehicle

CCCC[C@H](NC(=O)[C@H](CN(CC(=O)O)CC(=O)O)NC(=O)[C@H](Cc1c[nH]cn1)NC(=O)[C@H](CCC(N)=O)NC(=O)[C@H](CO)NC(=O)CNC(=O)COCCOCCNC(=O)CCCCCCCCCCCCCCCc1nnn[nH]1)C(=O)N[C@H]1CCC(=O)NCCCC[C@@H](C(N)=O)NC(=O)[C@H](Cc2c[nH]c3ccccc23)NC(=O)[C@H](CCCNC(=N)N)NC(=O)[C@@H](Cc2ccccc2)NC(=O)[C@@H]2C[C@@H](O)CN2C1=O [Example 6, (2-{2-[16-(Tetrazol-5-yl)hexadecanoylamino]ethoxy}ethoxy)acetyl-Gly-Ser-Gln-His-Dap(biscarboxymethyl)-Nle-c[Glu-Hyp-D-Phe-Arg-Trp-Lys]-NH2] ({Palmitoyl(16-(5-tetrazolyl))-AEEA}-GSQH[X1][Nle]E[Hyp][dF]RWK-NH2; lactam 7-12)
Food consumption (% of vehicle) 24 h (3 mg/kg): 58 % of vehicle
Food consumption (% of vehicle) 48 h (3 mg/kg): 69 % of vehicle

CCCC[C@H](NC(=O)[C@H](CNC(=O)CN(CC(=O)O)CC(=O)O)NC(=O)[C@H](Cc1c[nH]cn1)NC(=O)[C@H](CCC(N)=O)NC(=O)[C@H](CO)NC(=O)CNC(=O)COCCOCCNC(=O)CCCCCCCCCCCCCCCc1nnn[nH]1)C(=O)N[C@H]1CCC(=O)NCCCC[C@@H](C(N)=O)NC(=O)[C@H](Cc2c[nH]c3ccccc23)NC(=O)[C@H](CCCNC(=N)N)NC(=O)[C@@H](Cc2ccccc2)NC(=O)[C@@H]2C[C@@H](O)CN2C1=O [Example 9, (2-{2-[16-(Tetrazol-5-yl)hexadecanoylamino]ethoxy}ethoxy)acetyl-Gly-Ser-Gln-His-Dap(BCMA)-Nle-c[Glu-Hyp-D-Phe-Arg-Trp-Lys]-NH2] ({Palmitoyl(16-(5-tetrazolyl))-AEEA}-GSQH[Dap](NTA)[Nle]E[Hyp][dF]RWK-NH2; lactam 7-12)
Food consumption (% of vehicle) 24 h (3 mg/kg): 47 % of vehicle
Food consumption (% of vehicle) 48 h (3 mg/kg): 57 % of vehicle

CCCC[C@H](NC(=O)[C@H](CCCCNC(=O)CN(CC(=O)O)CC(=O)O)NC(=O)[C@H](CO)NC(=O)[C@H](CCC(N)=O)NC(=O)[C@H](CO)NC(=O)CNC(=O)COCCOCCNC(=O)CCCCCCCCCCCCCCCc1nnn[nH]1)C(=O)N[C@H]1CCC(=O)NCCCC[C@@H](C(N)=O)NC(=O)[C@H](Cc2c[nH]c3ccccc23)NC(=O)[C@H](CCCNC(=N)N)NC(=O)[C@@H](Cc2ccccc2)NC(=O)[C@@H]2C[C@@H](O)CN2C1=O [Example 15, (2-{2-[16-(Tetrazol-5-yl)hexadecanoylamino]ethoxy}ethoxy)acetyl-Gly-Ser-Gln-Ser-Lys(BCMA)-Nle-c[Glu-Hyp-D-Phe-Arg-Trp-Lys]-NH2] ({Palmitoyl(16-(5-tetrazolyl))-AEEA}-GSQSK(NTA)[Nle]E[Hyp][dF]RWK-NH2; lactam 7-12)
Food consumption (% of vehicle) 24 h (1 mg/kg): 74 % of vehicle
Food consumption (% of vehicle) 48 h (1 mg/kg): 85 % of vehicle

CCCC[C@H](NC(=O)CCNC(=O)[C@H](CCCCN(CC(=O)O)CC(=O)O)NC(=O)[C@H](Cc1c[nH]cn1)NC(=O)[C@H](CCC(N)=O)NC(=O)[C@H](CO)NC(=O)[C@H](CO)NC(=O)[C@H](CCC(N)=O)NC(=O)[C@@H](CO)NC(=O)CNC(=O)COCCOCCNC(=O)COCCOCCNC(=O)CCCCCCCCCCCCCCCCCCC(=O)O)C(=O)N[C@H]1CCC(=O)NCCCC[C@@H](C(N)=O)NC(=O)[C@H](Cc2c[nH]c3ccccc23)NC(=O)[C@H](CCCNC(=N)N)NC(=O)[C@@H](Cc2ccccc2)NC(=O)[C@@H]2C[C@@H](O)CN2C1=O [Example 22, {2-[2-(2-{2-[2-(19-Carboxynonadecanoylamino)ethoxy]ethoxy}acetylamino)ethoxy]ethoxy}acetyl-Gly-D-Ser-Gln-Ser-Ser-Gln-His-Lys(biscarboxymethyl)-β-Ala-Nle-c[Glu-Hyp-D-Phe-Arg-Trp-Lys]-NH2] ({C20 diacid-AEEA-AEEA}-G[dS]QSSQH[Lys(CH2CO2H)2][βAla][Nle]E[Hyp][dF]RWK-NH2; lactam 11-16)
Food consumption (% of vehicle) 24 h (1 mg/kg): 59 % of vehicle
Food consumption (% of vehicle) 48 h (1 mg/kg): 76 % of vehicle
